Measurements taken from patent publication USRE47689E1, “Compounds for treating spinal muscular atrophy” (PTC Therapeutics, Inc., priority 2011, dated 2019).

How the values were obtained:
Smn protein = Smn protein assay in cultured cells (SMN HTRF); format: cell-based, human; settings: 48 hours; for maximum fold (Fold) increase of Smn protein: SMA patient fibroblast cells, 7-point concentration data, fold increase relative to vehicle control (SMN HTRF); for EC1.5x (concentration giving 1.5-fold Smn protein increase): SMA Type 1 patient fibroblast cells (GM03813), 7-point concentration curve, SMN HTRF, concentration producing 1.5 times Smn protein vs DMSO vehicle control, read-out: EC1.5x for Smn protein expression
Method in brief: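 Smn in SMA fibroblast lysates, measured by anti-SMN HTRF after 48 h compound exposure; EC1.5x from fold change over vehicle.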

[1] = tested on: SMN2 minigene (full length SMN2 minigene mRNA containing SMN2 exon 7); experiment: SMN2 minigene mRNA splicing RT-qPCR assay in cultured cells; format: cell-based, human; settings: Homo sapiens, HEK293-H; HEK293H cells stably transfected with SMN2-A minigene; 24 hours; 7-point concentration curve; 1.5-fold relative to vehicle-treated cells; read-out: EC1.5x for production of full length SMN2 mRNA
Method in brief: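 Lysates → one-step RT-qPCR, minigene-specific primers (0.4 μM final) + GAPDH multiplex, 40 cycles. FL/GAPDH vs DMSO; EC1.5x, star-binned.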

SMILES | melting point | maximum fold (Fold) increase of Smn protein (Smn protein) | EC (1.5-fold) [1] | EC1.5x (concentration giving 1.5-fold Smn protein increase) (Smn protein)
Cc1cccc2[nH]c(-c3cc4ccc(N5CCNCC5)cc4oc3=O)nc12 [Compound 394, 3-(4-methyl-1H-benzimidazol-2-yl)-7-(piperazin-1-yl)-2H-chromen-2-one] | 206 to 211 °C | * (maximum fold increase of ≤1.2) | 3 to 30 µM | –
O=c1oc2cc(N3CCNCC3)ccc2cc1-c1nc2cc(F)ccc2[nH]1 [Compound 395, 3-(5-fluoro-1H-benzimidazol-2-yl)-7-(piperazin-1-yl)-2H-chromen-2-one] | 295 to 300 °C | * (maximum fold increase of ≤1.2) | 0.3 to 1 µM | –
CN(C)Cc1ccc2cc(-c3nc4ccccc4[nH]3)c(=O)oc2c1 [Compound 396, 3-(1H-benzimidazol-2-yl)-7-[(dimethylamino)methyl]-2H-chromen-2-one] | 214 to 218 °C | ** (fold increase between >1.2 and ≤1.35) | 1 to 3 µM | –
O=c1oc2cc(CO)cc(F)c2cc1-c1cn2ccsc2n1 [Compound 397, 5-fluoro-7-(hydroxymethyl)-3-(imidazo[2,1-b][1,3]thiazol-6-yl)-2H-chromen-2-one] | 278 to 282 °C | * (maximum fold increase of ≤1.2) | 3 to 30 µM | –
CSc1nccn2cc(-c3cc4ccc(N5C[C@@H](C)N[C@@H](C)C5)cc4oc3=O)nc12 [Compound 400, 7-[(3R,5S)-3,5-dimethylpiperazin-1-yl]-3-[8-(methylsulfanyl)imidazo[1,2-a]pyrazin-2-yl]-2H-chromen-2-one] | 283 to 285 °C | * (maximum fold increase of ≤1.2) | 3 to 30 µM | –
COc1cccn2cc(-c3cc4ccc(N5CCNCC5)cc4oc3=O)nc12 [Compound 402, 3-(8-methoxyimidazo[1,2-a]pyridin-2-yl)-7-(piperazin-1-yl)-2H-chromen-2-one] | 236 to 240 °C | * (maximum fold increase of ≤1.2) | 3 to 30 µM | –
COc1cccn2cc(-c3cc4ccc(N5CCN(C)CC5)cc4oc3=O)nc12 [Compound 403, 3-(8-methoxyimidazo[1,2-a]pyridin-2-yl)-7-(4-methylpiperazin-1-yl)-2H-chromen-2-one] | 202 to 205 °C | * (maximum fold increase of ≤1.2) | 3 to 30 µM | –
COc1ccc(-c2cc3c(F)cc(N4CCNCC4)cc3oc2=O)cc1OC [Compound 404, 3-(3,4-dimethoxyphenyl)-5-fluoro-7-(piperazin-1-yl)-2H-chromen-2-one] | 240 °C (dec.) | **** (fold increase between >1.5 and ≤1.65) | 0.3 to 1 µM | 1000 to 3000 nM
COc1ccc(-c2cc3c(F)cc(N4CCCN(C)CC4)cc3oc2=O)cc1OC [Compound 406, 3-(3,4-dimethoxyphenyl)-5-fluoro-7-(4-methyl-1,4-diazepan-1-yl)-2H-chromen-2-one] | 134 to 140 °C | * (maximum fold increase of ≤1.2) | 3 to 30 µM | –
O=c1oc2cc(N3CCNCC3)ccc2cc1-c1cc2ccccc2s1 [Compound 407, 3-(1-benzothiophen-2-yl)-7-(piperazin-1-yl)-2H-chromen-2-one] | 243 to 245 °C | * (maximum fold increase of ≤1.2) | 0.3 to 1 µM | –
C[C@@H]1CN(c2ccc3cc(-c4cc5ccccc5s4)c(=O)oc3c2)C[C@H](C)N1 [Compound 408, 3-(1-benzothiophen-2-yl)-7-[(3R,5S)-3,5-dimethylpiperazin-1-yl]-2H-chromen-2-one] | 271 to 273 °C | * (maximum fold increase of ≤1.2) | 0.3 to 1 µM | –
C[C@@H]1CN(c2ccc3cc(-c4cc5ccccc5s4)c(=O)oc3c2)CCN1 [Compound 409, 3-(1-benzothiophen-2-yl)-7-[(3R)-3-methylpiperazin-1-yl]-2H-chromen-2-one] | 264 to 266 °C | * (maximum fold increase of ≤1.2) | 1 to 3 µM | –
C[C@H]1CN(c2ccc3cc(-c4cc5ccccc5s4)c(=O)oc3c2)CCN1 [Compound 410, 3-(1-benzothiophen-2-yl)-7-[(3S)-3-methylpiperazin-1-yl]-2H-chromen-2-one] | 260 to 262 °C | * (maximum fold increase of ≤1.2) | < 0.1 µM | –
COc1cc(OC)cc(-c2cc3ccc(N4CCCN(C)CC4)cc3oc2=O)c1 [Compound 411, 3-(3,5-dimethoxyphenyl)-7-(4-methyl-1,4-diazepan-1-yl)-2H-chromen-2-one] | 151 to 153 °C | * (maximum fold increase of ≤1.2) | 3 to 30 µM | –
COc1cc(OC)cc(-c2cc3ccc(N4CCN[C@H](C)C4)cc3oc2=O)c1 [Compound 412, 3-(3,5-dimethoxyphenyl)-7-[(3R)-3-methylpiperazin-1-yl]-2H-chromen-2-one] | 148 to 150 °C | * (maximum fold increase of ≤1.2) | 3 to 30 µM | –
COc1cc(OC)cc(-c2cc3ccc(N4CCN[C@@H](C)C4)cc3oc2=O)c1 [Compound 413, 3-(3,5-dimethoxyphenyl)-7-[(3S)-3-methylpiperazin-1-yl]-2H-chromen-2-one] | 149 to 151 °C | * (maximum fold increase of ≤1.2) | 1 to 3 µM | –
O=c1oc2cc(N3CCNCC3)ccc2cc1-c1cccc(OC2CCC2)n1 [Compound 414, 3-[6-(cyclobutyloxy)pyridin-2-yl]-7-(piperazin-1-yl)-2H-chromen-2-one] | 166 to 168 °C | * (maximum fold increase of ≤1.2) | 3 to 30 µM | –
CN1CCN(c2ccc3cc(-c4cccc(OC5CCC5)n4)c(=O)oc3c2)CC1 [Compound 415, 3-[6-(cyclobutyloxy)pyridin-2-yl]-7-(4-methylpiperazin-1-yl)-2H-chromen-2-one] | 158 to 160 °C | * (maximum fold increase of ≤1.2) | 3 to 30 µM | –
COc1ccc(-c2cc3c(F)cc(N4CCN[C@H](C)C4)cc3oc2=O)cc1OC [Compound 416, 3-(3,4-dimethoxyphenyl)-5-fluoro-7-[(3R)-3-methylpiperazin-1-yl]-2H-chromen-2-one] | 115 to 117 °C | ** (fold increase between >1.2 and ≤1.35) | 1 to 3 µM | –
C[C@@H]1CN(c2ccc3cc(-c4cn5ccncc5n4)c(=O)oc3c2)C[C@H](C)N1 [Compound 417, 7-[(3R,5S)-3,5-dimethylpiperazin-1-yl]-3-(imidazo[1,2-a]pyrazin-2-yl)-2H-chromen-2-one] | 248 to 250 °C | *** (fold increase between >1.35 and ≤1.5) | 0.1 to 0.3 µM | < 300 nM
